This assay concerns T1, SCF^Skp2/Cks1.
T1 construct: 6His-Skp2-(isoform 1, hu,FL),; GST-Skp1-(hu,FL), 6His-Cul1-; (hu,FL), UT-Rbx1-(hu,FL); 6His-Cks1-(hu,FL); 6His (N); GST (N); made in house
Kind of assay: 'Live' SCF^Skp2/Cks1 (E3) p27 ubiquitination assay, ECL. It is filed as biochemical, human. The settings on record: for shows up as inhibitor in R140 kinase inhibitor panel / IC50, E3 (SCF^Skp2/Cks1) assay ECL: 60 minute incubation; for shows up as inhibitor in R140 kinase inhibitor panel / inhibition in E3 assay, panel of 41 inhibitors: final E3 assay conditions; for IC50, E3 (SCF^Skp2/Cks1) assay ECL: 25 nM c-Myc p27, 5 nM E1, 1 μM E2, 25 nM E3 tetramer, 25 nM Cks1, 2 μM Ub, 100 μM ATP; for inhibition in E3 assay, panel of 41 inhibitors: R140 kinase inhibitor panel + PYR-41. Here is the method: FIG. 30 (a): ‘Live’ SCF^Skp2/Cks1 Assay—ECL Inhibitor study—PYR-41 (E1 inhibitor).
FIG. 32: ‘Live’ SCF^Skp2/Cks1 Assay—ECL R140 Kinase inhibit or panel. Used 60 minute incubation; 25 nM c-Myc p27; anti-c-Myc capture for p27 (Millipore 05-274, 1/500); 5 nM E1; 1 μM E2 (HA); 25 nM E3 tetramer; 25 nM Cks1; 2 μM Ub; 100 μM ATP; streptavidin sulfo tag (MSD, R32AD-1, 1 μg/ml).
FIG. 34: ‘Live’ SCF^Skp2/Cks1 Assay—ECL follow up IC50s. Used 60 minute incubation; 25 nM c-Myc p27; anti c-Myc capture for p27 (Millipore 05-274, 1/500); 5 nM E1; 1 μM E2 (HA); 25 nM E3 tetramer; 25 nM Cks1; 2 μM Ub; 100 μM ATP; streptavidin sulfo tag (MSD, R32AD-1, 1 μg/ml). Titration of PYR41 (Calbiochem 662105) from 300 μM to 10 nM (control). Titration of Rottlerin, EGCG, AG538 and K252c from 300 μM to 10 nM.
Each of the assays in the p27 ubiquitination cascade (E1, E2 and E3) were tested against the E1 inhibitor PYR-41. No pre-charging of either the E1 or E2 was carried out prior to the introduction of the compound although in the E3 assay, p27 phosphorylation by CDK2/Cyclin E was carried out in the absence of inhibitor.
In order to test the feasibility of screening the E3 assay against a range of inhibitors, the assay was tested against a panel of 41 inhibitors (40 known kinase inhibitors and PYR-41) (FIG. 31). […] Using the same assay conditions, the E3 assay was tested against these inhibitors (FIG. 33).

T1 sequence (Q13309 whole entry, canonical isoform): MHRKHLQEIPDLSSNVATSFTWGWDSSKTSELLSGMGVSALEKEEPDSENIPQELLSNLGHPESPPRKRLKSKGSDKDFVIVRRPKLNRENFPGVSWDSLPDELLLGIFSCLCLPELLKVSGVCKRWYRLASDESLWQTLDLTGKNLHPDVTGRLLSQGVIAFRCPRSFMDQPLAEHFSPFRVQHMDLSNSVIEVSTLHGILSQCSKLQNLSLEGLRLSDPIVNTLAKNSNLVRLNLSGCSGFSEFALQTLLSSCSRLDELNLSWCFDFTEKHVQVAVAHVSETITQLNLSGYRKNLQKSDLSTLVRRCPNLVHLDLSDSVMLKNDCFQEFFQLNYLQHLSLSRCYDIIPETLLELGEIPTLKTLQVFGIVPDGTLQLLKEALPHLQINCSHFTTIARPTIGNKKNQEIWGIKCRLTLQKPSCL
T1 sequence (P63208 1-160 isoform P63208-2, further chain): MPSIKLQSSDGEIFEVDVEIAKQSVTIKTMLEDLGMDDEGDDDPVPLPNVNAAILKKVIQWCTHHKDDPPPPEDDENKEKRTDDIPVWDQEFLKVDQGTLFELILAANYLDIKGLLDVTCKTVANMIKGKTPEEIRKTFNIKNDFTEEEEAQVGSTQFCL
T1 sequence (Q13616 whole entry, further chain, canonical isoform): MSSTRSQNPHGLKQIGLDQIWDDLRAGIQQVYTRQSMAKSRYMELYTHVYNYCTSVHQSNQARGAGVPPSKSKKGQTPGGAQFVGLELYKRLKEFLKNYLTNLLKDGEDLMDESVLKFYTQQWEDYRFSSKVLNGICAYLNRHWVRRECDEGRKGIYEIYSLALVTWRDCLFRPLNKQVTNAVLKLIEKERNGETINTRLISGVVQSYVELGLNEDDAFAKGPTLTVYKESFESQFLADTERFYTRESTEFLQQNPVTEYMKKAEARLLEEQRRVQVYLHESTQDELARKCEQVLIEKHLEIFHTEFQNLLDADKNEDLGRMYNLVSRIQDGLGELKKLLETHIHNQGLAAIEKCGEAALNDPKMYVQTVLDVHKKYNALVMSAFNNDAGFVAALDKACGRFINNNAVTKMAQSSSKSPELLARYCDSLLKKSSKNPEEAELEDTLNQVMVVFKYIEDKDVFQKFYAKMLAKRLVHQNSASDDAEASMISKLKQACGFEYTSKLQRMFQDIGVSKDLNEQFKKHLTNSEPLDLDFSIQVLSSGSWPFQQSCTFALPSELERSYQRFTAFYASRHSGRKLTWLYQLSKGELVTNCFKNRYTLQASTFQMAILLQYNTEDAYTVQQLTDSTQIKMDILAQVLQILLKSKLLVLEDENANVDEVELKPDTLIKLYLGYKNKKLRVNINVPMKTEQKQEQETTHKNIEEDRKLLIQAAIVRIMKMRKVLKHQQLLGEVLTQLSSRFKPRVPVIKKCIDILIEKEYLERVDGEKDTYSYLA
T1 sequence (P62877 whole entry, further chain, canonical isoform): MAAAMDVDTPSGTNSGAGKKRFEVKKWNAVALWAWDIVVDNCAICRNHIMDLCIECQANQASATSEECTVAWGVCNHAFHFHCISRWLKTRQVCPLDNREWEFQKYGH
T1 sequence (P61024 whole entry, further chain, canonical isoform): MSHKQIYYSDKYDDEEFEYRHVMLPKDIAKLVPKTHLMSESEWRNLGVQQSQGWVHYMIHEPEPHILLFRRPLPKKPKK

Regarding `N#C/C(=C\c1ccc(O)c(O)c1)C(=O)c1ccc(O)c(O)c1` [AG538], the “shows up as inhibitor in R140 kinase inhibitor panel” value (shortened to “shows up as inhibitor”) is “show up as inhibitors”.

As for `O=C(O[C@@H]1Cc2c(O)cc(O)cc2O[C@@H]1c1cc(O)c(O)c(O)c1)c1cc(O)c(O)c(O)c1` [EGCG], the “IC50, E3 (SCF^Skp2/Cks1) assay ECL” value is recorded as “in the μM range”; the “shows up as inhibitor” value is given as “show up as inhibitors”; the “inhibition in E3 assay, panel of 41 inhibitors” value (“inhibition in E3 assay, panel” for short) was “moderate amounts of inhibition”.

For the molecule `O=C1NCc2c1c1c3ccccc3[nH]c1c1[nH]c3ccccc3c21` [K252c], the “IC50, E3 (SCF^Skp2/Cks1) assay ECL” value is on record as “false positive”; the “shows up as inhibitor” value is “show up as inhibitors”; the “inhibition in E3 assay, panel” value was “moderate amounts of inhibition”.

`CCOC(=O)c1ccc(N2NC(=O)/C(=C/c3ccc([N+](=O)[O-])o3)C2=O)cc1` [PYR-41]: the “inhibition in E3 assay, panel” value is recorded as above 80%.

In the case of `CC(=O)c1c(O)c(C)c(O)c(Cc2c(O)c3c(c(C(=O)/C=C/c4ccccc4)c2O)OC(C)(C)C=C3)c1O` [Rottlerin], the “IC50, E3 (SCF^Skp2/Cks1) assay ECL” value was “in the μM range”; the “shows up as inhibitor” value is recorded as “show up as inhibitors”; the “inhibition in E3 assay, panel” value is reported as “moderate amounts of inhibition”.

The values above are taken from US10067143B2, “Ubiquitination assay” (ITI Scotland Limited, priority 2010, dated 2018).
